Results as given in the supplement of paper PMC10307832.

Columns and labels:
Experiment in all cases: relative viability (nuclei count vs DMSO), 5 days (fraction); higher = more cells survive
[1] = test system: NCI-H358
How it was run: (§1)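 After 5 days of treatment, lung cancer cells in 1536-well plates were fixed and stained in a single step (final 0.05% Triton X-100, 1% formaldehyde, 1 ug/ml Hoechst) and their nuclei counted on 4× images. Treatment had been applied by pin tool the day after seeding as one drug alone or as a fixed anchor-drug dose with five library-drug doses (not always all listed) in √10 steps. Relative viability is the nuclei count of treated wells divided by that of vehicle wells, and values are medians of duplicate plates.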

[2] = test system: HOP-62
How it was run: as §1

[3] = test system: NCI-H1975
How it was run: as §1

[4] = test system: A-427
How it was run: as §1

[5] = test system: SW 1573
How it was run: as §1

[6] = test system: NCI-H1915
How it was run: as §1

[7] = test system: PC-3 [JPC-3]
How it was run: as §1

[8] = test system: NCI-H647
How it was run: as §1

[9] = test system: NCI-H2347
How it was run: as §1

[10] = test system: NCI-H1755
How it was run: as §1

[11] = test system: LOU-NH91
How it was run: as §1

[12] = test system: NCI-H1792
How it was run: as §1

[13] = test system: HCC-78
How it was run: as §1

[14] = test system: LXF-289
How it was run: as §1

[15] = test system: LC-2-ad
How it was run: as §1

[16] = test system: SK-LU-1
How it was run: as §1

[17] = test system: NCI-H2228
How it was run: as §1

[18] = test system: NCI-H1734
How it was run: as §1

[19] = test system: NCI-H2126
How it was run: as §1

[20] = test system: RERF-LC-KJ
How it was run: as §1

[21] = test system: NCI-H460
How it was run: as §1

[22] = test system: HCC-15
How it was run: as §1

[23] = test system: NCI-H2342
How it was run: as §1

NC(=O)Nc1cc(-c2cccc(F)c2)sc1C(=O)N[C@H]1CCCNC1 [AZD7762] + N=C(N)NC(=N)NCCc1ccccc1 [Phenformin] (partner 250 µM)
relative viability ([1]; first compound 0.01 µM): 0.305 | relative viability ([1]; first compound 0.03162 µM): 0.401 | relative viability ([1]; first compound 0.1 µM): 0.334 | relative viability ([1]; first compound 0.3162 µM): 0.242 | relative viability ([1]; first compound 1 µM): 0.185 | relative viability ([2]; first compound 0.01 µM): 0.748 | relative viability ([2]; first compound 0.03162 µM): 0.665 | relative viability ([2]; first compound 0.1 µM): 0.791 | relative viability ([2]; first compound 0.3162 µM): 0.616 | relative viability ([2]; first compound 1 µM): 0.583 | relative viability ([3]; first compound 0.01 µM): 0.425 | relative viability ([3]; first compound 0.03162 µM): 0.411 | relative viability ([3]; first compound 0.1 µM): 0.417 | relative viability ([3]; first compound 0.3162 µM): 0.386 | relative viability ([3]; first compound 1 µM): 0.328 | relative viability ([4]; first compound 0.01 µM): 0.255 | relative viability ([4]; first compound 0.03162 µM): 0.346 | relative viability ([4]; first compound 0.1 µM): 0.292 | relative viability ([4]; first compound 0.3162 µM): 0.304 | relative viability ([4]; first compound 1 µM): 0.197 | relative viability ([5]; first compound 0.01 µM): 0.374 | relative viability ([5]; first compound 0.03162 µM): 0.384 | relative viability ([5]; first compound 0.1 µM): 0.346 | relative viability ([5]; first compound 0.3162 µM): 0.297 | relative viability ([5]; first compound 1 µM): 0.164 | relative viability ([6]; first compound 0.01 µM): 0.373 | relative viability ([6]; first compound 0.03162 µM): 0.375 | relative viability ([6]; first compound 0.1 µM): 0.368 | relative viability ([6]; first compound 0.3162 µM): 0.362 | relative viability ([6]; first compound 1 µM): 0.349 | relative viability ([7]; first compound 0.01 µM): 0.485 | relative viability ([7]; first compound 0.03162 µM): 0.503 | relative viability ([7]; first compound 0.1 µM): 0.449 | relative viability ([7]; first compound 0.3162 µM): 0.484 | relative viability ([7]; first compound 1 µM): 0.405 | relative viability ([8]; first compound 0.01 µM): 0.495 | relative viability ([8]; first compound 0.03162 µM): 0.445 | relative viability ([8]; first compound 0.1 µM): 0.494 | relative viability ([8]; first compound 0.3162 µM): 0.315 | relative viability ([8]; first compound 1 µM): 0.106 | relative viability ([9]; first compound 0.01 µM): 0.426 | relative viability ([9]; first compound 0.03162 µM): 0.365 | relative viability ([9]; first compound 0.1 µM): 0.51 | relative viability ([9]; first compound 0.3162 µM): 0.483 | relative viability ([9]; first compound 1 µM): 0.371 | relative viability ([10]; first compound 0.01 µM): 0.636 | relative viability ([10]; first compound 0.03162 µM): 0.704 | relative viability ([10]; first compound 0.1 µM): 0.656 | relative viability ([10]; first compound 0.3162 µM): 0.596 | relative viability ([10]; first compound 1 µM): 0.423 | relative viability ([11]; first compound 0.01 µM): 0.783 | relative viability ([11]; first compound 0.03162 µM): 0.76 | relative viability ([11]; first compound 0.1 µM): 0.717 | relative viability ([11]; first compound 0.3162 µM): 0.772 | relative viability ([11]; first compound 1 µM): 0.525 | relative viability ([12]; first compound 0.01 µM): 0.412 | relative viability ([12]; first compound 0.03162 µM): 0.26 | relative viability ([12]; first compound 0.1 µM): 0.442 | relative viability ([12]; first compound 0.3162 µM): 0.736 | relative viability ([12]; first compound 1 µM): 0.258 | relative viability ([13]; first compound 0.01 µM): 0.737 | relative viability ([13]; first compound 0.03162 µM): 1.12 | relative viability ([13]; first compound 0.1 µM): 0.766 | relative viability ([13]; first compound 0.3162 µM): 0.718 | relative viability ([13]; first compound 1 µM): 0.604 | relative viability ([14]; first compound 0.01 µM): 0.49 | relative viability ([14]; first compound 0.03162 µM): 0.54 | relative viability ([14]; first compound 0.1 µM): 0.508 | relative viability ([14]; first compound 0.3162 µM): 0.445 | relative viability ([14]; first compound 1 µM): 0.526 | relative viability ([15]; first compound 0.01 µM): 0.645 | relative viability ([15]; first compound 0.03162 µM): 0.595 | relative viability ([15]; first compound 0.1 µM): 0.555 | relative viability ([15]; first compound 0.3162 µM): 0.592 | relative viability ([15]; first compound 1 µM): 0.342 | relative viability ([16]; first compound 0.01 µM): 0.563 | relative viability ([16]; first compound 0.03162 µM): 0.494 | relative viability ([16]; first compound 0.1 µM): 0.17 | relative viability ([16]; first compound 0.3162 µM): 0.139 | relative viability ([16]; first compound 1 µM): 0.131 | relative viability ([17]; first compound 0.01 µM): 0.305 | relative viability ([17]; first compound 0.03162 µM): 0.348 | relative viability ([17]; first compound 0.1 µM): 0.223 | relative viability ([17]; first compound 0.3162 µM): 0.152 | relative viability ([17]; first compound 1 µM): 0.13 | relative viability ([18]; first compound 0.01 µM): 0.44 | relative viability ([18]; first compound 0.03162 µM): 0.44 | relative viability ([18]; first compound 0.1 µM): 0.398 | relative viability ([18]; first compound 0.3162 µM): 0.33 | relative viability ([18]; first compound 1 µM): 0.211 | relative viability ([19]; first compound 0.01 µM): 0.513 | relative viability ([19]; first compound 0.03162 µM): 0.593 | relative viability ([19]; first compound 0.1 µM): 0.545 | relative viability ([19]; first compound 0.3162 µM): 0.536 | relative viability ([19]; first compound 1 µM): 0.462 | relative viability ([20]; first compound 0.01 µM): 0.481 | relative viability ([20]; first compound 0.03162 µM): 0.424 | relative viability ([20]; first compound 0.1 µM): 0.399 | relative viability ([20]; first compound 0.3162 µM): 0.4 | relative viability ([20]; first compound 1 µM): 0.382 | relative viability ([21]; first compound 0.01 µM): 0.542 | relative viability ([21]; first compound 0.03162 µM): 0.468 | relative viability ([21]; first compound 0.1 µM): 0.467 | relative viability ([21]; first compound 0.3162 µM): 0.253 | relative viability ([21]; first compound 1 µM): 0.0452 | relative viability ([22]; first compound 0.01 µM): 0.483 | relative viability ([22]; first compound 0.03162 µM): 0.475 | relative viability ([22]; first compound 0.1 µM): 0.432 | relative viability ([22]; first compound 0.3162 µM): 0.473 | relative viability ([22]; first compound 1 µM): 0.445 | relative viability ([23]; first compound 0.01 µM): 0.597 | relative viability ([23]; first compound 0.03162 µM): 0.605 | relative viability ([23]; first compound 0.1 µM): 0.72 | relative viability ([23]; first compound 0.3162 µM): 0.567 | relative viability ([23]; first compound 1 µM): 0.56
